Laboratory results taken from patent US20140249135A1, “PIM KINASE INHIBITORS AND METHODS OF THEIR USE” (NOVARTIS AG, priority 2007, published 2014).
pIC50: −log10 of the molar value. Where two headings read alike, the source gives them in different places.

Key:
Format in all cases: biochemical
Pim1 kinase = Pim1 kinase (Homo sapiens, UniProt P11309); assay: Pim1 ATP depletion assay; details: Pim1 ATP depletion assay; for pIC50: read-out: PIM1 IC50; for IC50: read-out: IC50 (μM) PIM1;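 as to all read-outs here: Luciferase-luciferin luminescence readout of residual ATP after PIM1 transfers phosphate to a peptide substrate, 40 µM ATP added, reaction run to roughly half ATP consumption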
Pim2 kinase = Pim2 kinase (Homo sapiens, UniProt Q9P1W9); assay: Pim2 ATP depletion assay; details: for pIC50: read-out: PIM2 IC50; for IC50: read-out: IC50 (μM) PIM2;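 as to all read-outs here: Luciferase-based luminescent readout of ATP remaining after PIM2 phosphorylates a BAD peptide, final 5 nM enzyme, 4 µM ATP, 10 µM peptide, 2.5% DMSO, run to roughly half ATP consumption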
Pim3 kinase = Pim3 kinase (Homo sapiens, UniProt Q86V86); assay: Pim3 ATP depletion assay; details: for pIC50: read-out: PIM3 IC50; for IC50: read-out: IC50 (μM) PIM3

Pim1 kinase, sequence (P11309 whole entry): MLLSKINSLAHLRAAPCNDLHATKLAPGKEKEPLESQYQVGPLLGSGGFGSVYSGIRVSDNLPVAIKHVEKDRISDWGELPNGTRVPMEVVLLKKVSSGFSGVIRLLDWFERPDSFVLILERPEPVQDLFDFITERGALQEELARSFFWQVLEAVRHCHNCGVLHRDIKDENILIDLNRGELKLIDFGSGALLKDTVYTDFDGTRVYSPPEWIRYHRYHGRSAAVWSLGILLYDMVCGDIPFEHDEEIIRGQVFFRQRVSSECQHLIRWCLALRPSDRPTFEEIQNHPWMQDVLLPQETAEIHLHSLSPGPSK
Pim2 kinase, sequence (Q9P1W9 whole entry): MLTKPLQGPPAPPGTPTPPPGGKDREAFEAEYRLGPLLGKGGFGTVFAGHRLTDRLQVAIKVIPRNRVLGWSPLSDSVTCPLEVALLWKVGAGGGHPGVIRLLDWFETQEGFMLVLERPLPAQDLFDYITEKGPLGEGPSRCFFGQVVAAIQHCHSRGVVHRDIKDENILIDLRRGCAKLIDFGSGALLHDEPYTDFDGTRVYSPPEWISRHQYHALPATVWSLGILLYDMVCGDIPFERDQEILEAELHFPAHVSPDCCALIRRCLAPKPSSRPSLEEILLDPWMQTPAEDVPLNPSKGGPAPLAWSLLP

Row | SMILES | pIC50 (Pim1 kinase) | pIC50 (Pim2 kinase) | pIC50 (Pim3 kinase) | IC50 (Pim1 kinase) [µM] | IC50 (Pim2 kinase) [µM] | IC50 (Pim3 kinase) [µM]
1 | CC(=O)c1ccc(N2CCCC(N)C2)c(NC(=O)c2nccnc2N)c1 (stereo not drawn) [Example 221, N-[5-acetyl-2-(3-aminopiperidin-1-yl)phenyl]-3-aminopyrazine-2-carboxamide] | – | – | – | < 1 | 1 to 10 | < 1
2 | CC(C)Oc1ccc(F)c(-c2ccc(N)c(C(=O)Nc3cnccc3N3CCC[C@H](O)C3)n2)c1F [Example 652, 3-Amino-6-(2,6-difluoro-3-isopropoxy-phenyl)-pyridine-2-carboxylic acid (3-hydroxy-3,4,5,6-tetrahydro-2H-[1,4′]bi-pyridinyl-3′-yl)-amide] | > 6.00 | > 6.00 | > 6.00 | – | – | –
3 | COc1cc(N)nc(-c2ccncc2NC(=O)c2nc(-c3c(F)cccc3F)ccc2N)c1 [Example 622, 3-Amino-6-(2,6-difluoro-phenyl)-pyridine-2-carboxylic acid (6-amino-4-methoxy-[2,4′]bipyridinyl-3′-yl)-amide] | > 6.00 | > 6.00 | > 6.00 | – | – | –
4 | NC1CC(CO)CN(c2ccncc2NC(=O)c2ccc(F)c(-c3ccccc3F)n2)C1 (stereo not drawn) [Example 289, 5-Fluoro-6-(2-fluoro-phenyl)-pyridine-2-carboxylic acid (5-amino-3-hydroxymethyl-3,4,5,6-tetrahydro-2H-[1,4′]bipyridinyl-3′-yl)-amide] | – | – | – | < 1 | < 1 | < 1
5 | Nc1ccc(-c2cccc(-c3ccccc3)c2)nc1C(=O)Nc1cnccc1N1CCC[C@H](N)C1 [Example 458, 3-Amino-6-biphenyl-3-yl-pyridine-2-carboxylic acid (3-amino-3,4,5,6-tetrahydro-2H-[1,4′]bipyridinyl-3′-yl)-amide] | – | – | – | < 1 | < 1 | < 1
6 | Nc1ccc(C2CCCCC2)nc1C(=O)Nc1cnccc1N1CC(N)CC(C(F)(F)F)C1 (stereo not drawn) [Example 279, 3-Amino-6-cyclohexyl-pyridine-2-carboxylic acid (3-amino-5-trifluoromethyl-3,4,5,6-tetra-hydro-2H-[1,4′]bipyridinyl-3′-yl)-amide] | – | – | – | < 1 | < 1 | < 1
7 | CC(C)Oc1cncc(-c2ccc(N)c(C(=O)Nc3cnccc3N3CCC[C@H](N)C3)n2)n1 [Example 748, 3-Amino-6-(6-isopropoxy-pyrazin-2-yl)-pyridine-2-carboxylic acid (3-amino-3,4,5,6-tetrahydro-2H-[1,4′]bi-pyridinyl-3′-yl)-amide] | > 6.00 | > 6.00 | > 6.00 | – | – | –
8 | COc1cc(F)c(-c2ccc(N)c(C(=O)Nc3cnccc3N3CCC[C@H](N)C3)n2)cc1F [Example 477, 3-Amino-6-(2,5-difluoro-4-methoxy-phenyl)-pyridine-2-carboxylic acid (3-amino-3,4,5,6-tetrahydro-2H-[1,4′]bipyridinyl-3′-yl)-amide] | – | – | – | < 1 | < 1 | < 1
9 | Cc1cc(-c2ccncc2NC(=O)c2nc(-c3cc(C(=O)NC(C)C)ccc3F)ccc2N)nc(N)n1 [Example 563, 3-Amino-6-(2-fluoro-5-isopropylcarbamoyl-phenyl)-pyridine-2-carboxylic acid [4-(2-amino-6-methyl-pyrimidin-4-yl)-pyridin-3-yl]-amide] | > 6.00 | > 6.00 | > 6.00 | – | – | –
10 | N[C@H]1CCCN(c2ccncc2NC(=O)c2ccc(F)c(-c3ccccc3F)n2)C1 [Example 444, 5-Fluoro-6-(2-fluoro-phenyl)-pyridine-2-carboxylic acid (3-amino-3,4,5,6-tetrahydro-2H-[1,4′]bipyridinyl-3′-yl)-amide] | – | – | – | < 1 | < 1 | < 1
11 | CCCOc1ccc(F)c(-c2ccc(N)c(C(=O)Nc3cnccc3-c3cc(N)nc(C)n3)n2)c1F [Example 533, 3-Amino-6-(2,6-difluoro-3-propoxy-phenyl)-pyridine-2-carboxylic acid [4-(6-amino-2-methyl-pyrimidin-4-yl)-pyridin-3-yl]-amide] | – | – | – | < 1 | < 1 | < 1

Results, then the compound that gave them:

Row | pIC50 (Pim1 kinase) | pIC50 (Pim2 kinase) | pIC50 (Pim3 kinase) | IC50 (Pim1 kinase) [µM] | IC50 (Pim2 kinase) [µM] | IC50 (Pim3 kinase) [µM] | SMILES
12 | > 6.00 | > 6.00 | > 6.00 | – | – | – | Nc1ccc(-c2cccc(-n3cccn3)n2)nc1C(=O)Nc1cnccc1N1CCC[C@H](N)C1 [Example 703, 5-Amino-6′-pyrazol-1-yl-[2,2′]bipyridinyl-6-carboxylic acid (3-amino-3,4,5,6-tetra-hydro-2H-[1,4′]bipyridinyl-3′-yl)-amide]
13 | – | – | – | < 1 | < 1 | < 1 | CC(C)NC(=O)c1ccc(F)c(-c2ccc(N)c(C(=O)Nc3cnccc3N3CC[C@@H](F)[C@H](N)C3)n2)c1 [Example 253, 3-Amino-6-(2-fluoro-5-isopropylcarbamoyl-phenyl)-pyridine-2-carboxylic acid (3-amino-4-fluoro-3,4,5,6-tetra-hydro-2H-[1,4′]bipyridinyl-3′-yl)-amide]
14 | > 6.00 | > 6.00 | > 6.00 | – | – | – | Nc1ccc(-c2cccc[n+]2[O-])nc1C(=O)Nc1cnccc1N1CCC[C@H](N)C1 [Example 693, 5-Amino-1′-oxy-[2,2′]bi-pyridinyl-6-carboxylic acid (3-amino-3,4,5,6-tetrahydro-2H-[1,4′]bipyridinyl-3′-yl)-amide]
15 | – | – | – | < 1 | < 1 | < 1 | COc1ncccc1-c1nc(C(=O)Nc2cnccc2N2CCC[C@H](N)C2)c(N)cc1F [Example 511, 5-Amino-3-fluoro-2′-methoxy-[2,3′]bipyridinyl-6-carboxylic acid (3-amino-3,4,5,6-tetrahydro-2H-[1,4′]bipyridinyl-3′-yl)-amide]
16 | > 6.00 | > 6.00 | > 6.00 | – | – | – | CCCOc1ccc(F)c(-c2ccc(N)c(C(=O)Nc3cnccc3N3C[C@@H](N)C[C@H](O)C3)n2)c1 [Example 581, 3-Amino-6-(2-fluoro-5-propoxy-phenyl)-pyridine-2-carboxylic acid (3-amino-5-hydroxy-3,4,5,6-tetrahydro-2H-[1,4′]bipyridinyl-3′-yl)-amide]
17 | – | – | – | < 1 | < 1 | < 1 | Nc1ccc(-c2cccs2)nc1C(=O)Nc1cnccc1N1CCC[C@H](N)C1 [Example 475, 3-Amino-6-thiophen-2-yl-pyridine-2-carboxylic acid (3-amino-3,4,5,6-tetrahydro-2H-[1,4′]bipyridinyl-3′-yl)-amide]
18 | > 6.00 | > 6.00 | > 6.00 | – | – | – | Cc1cccc(-c2ccc(N)c(C(=O)Nc3cnccc3N3CCC[C@H](N)C3)n2)n1 [Example 726, 5-Amino-6′-methyl-[2,2′]bi-pyridinyl-6-carboxylic acid (3-amino-3,4,5,6-tetrahydro-2H-[1,4′]bipyridinyl-3′-yl)-amide]
19 | > 6.00 | > 6.00 | > 6.00 | – | – | – | Nc1ccc(-c2ncccc2F)nc1C(=O)Nc1cnccc1N1CCC(N)C(O)C1 (stereo not drawn) [Example 734, 5-Amino-3′-fluoro-[2,2′]bi-pyridinyl-6-carboxylic acid (4-amino-3-hydroxy-3,4,5,6-tetra-hydro-2H-[1,4′]bipyridinyl-3′-yl)-amide]
20 | > 6.00 | > 6.00 | > 6.00 | – | – | – | Cc1ccnc(-c2nc(C(=O)Nc3cnccc3N3CCC[C@H](N)C3)c(N)cc2F)c1F [Example 737, 5-Amino-3,3′-difluoro-4′-methyl-[2,2′]bipyridinyl-6-carboxylic acid (3-amino-3,4,5,6-tetrahydro-2H-[1,4′]bi-pyridinyl-3′-yl)-amide]
21 | – | – | – | < 1 | < 1 | < 1 | CC(C)NC(=O)c1ccc(F)c(-c2ccc(N)c(C(=O)Nc3cnccc3N3CC[C@H](F)[C@H](N)C3)n2)c1 [Example 258, 3-Amino-6-(2-fluoro-5-isopropylcarbamoyl-phenyl)-pyridine-2-carboxylic acid (3-amino-4-fluoro-3,4,5,6-tetra-hydro-2H-[1,4′]bipyridinyl-3′-yl)-amide]
22 | > 6.00 | > 6.00 | > 6.00 | – | – | – | Nc1ccc(-c2ncccc2F)nc1C(=O)Nc1cnccc1N1CCC(O)C(N)C1 (stereo not drawn) [Example 735, 5-Amino-3′-fluoro-[2,2′]bi-pyridinyl-6-carboxylic acid (3-amino-4-hydroxy-3,4,5,6-tetra-hydro-2H-[1,4′]bipyridinyl-3′-yl)-amide]
23 | > 6.00 | > 6.00 | > 6.00 | – | – | – | Nc1ccc(-c2cc(C(F)(F)F)ccn2)nc1C(=O)Nc1cnccc1N1CCC[C@H](N)C1 [Example 715, 5-Amino-4′-trifluoromethyl-[2,2′]bipyridinyl-6-carboxylic acid (3-amino-3,4,5,6-tetra-hydro-2H-[1,4′]bipyridinyl-3′-yl)-amide]
24 | > 6.00 | > 6.00 | > 6.00 | – | – | – | NC(=O)c1ccnc(-c2ccc(N)c(C(=O)Nc3cnccc3N3CCC[C@H](N)C3)n2)c1 [Example 704, 5′-Amino-[2,2′]bipyridinyl-4,6′-dicarboxylic acid 4-amide 6′-[(3-amino-3,4,5,6-tetrahydro-2H-[1,4′]bipyridinyl-3′-yl)-amide]]
25 | – | – | – | < 1 | < 1 | < 1 | Nc1cnc(-c2ccccc2F)nc1C(=O)Nc1cnccc1N1CCC[C@H](N)C1 [Example 263, 5-Amino-2-(2-fluoro-phenyl)-pyrimidine-4-carboxylic acid (3-amino-3,4,5,6-tetrahydro-2H-[1,4′]bipyridinyl-3′-yl)-amide]
26 | – | – | – | < 1 | < 1 | < 1 | Nc1ccc(-c2sccc2Cl)nc1C(=O)Nc1cnccc1N1CCC[C@H](N)C1 [Example 474, 3-Amino-6-(3-chloro-thiophen-2-yl)-pyridine-2-carboxylic acid (3-amino-3,4,5,6-tetrahydro-2H-[1,4′]bipyridinyl-3′-yl)-amide]
